The record followed here is patent publication US8962596B2 (Array BioPharma Inc., priority 2010, dated 2015).

The structures appear in SMILES notation.

Type in all cases: biochemical
The target of assay [1] is T1, Human Tyk2 kinase domain (Homo sapiens, UniProt P29597).
T1 construct: comprising amino acids 886 to 1187 with 10 additional histidine residues; 10xHis (histidine tag) (C, cleaved yes); made in house
T1 sequence (P29597 886-1187): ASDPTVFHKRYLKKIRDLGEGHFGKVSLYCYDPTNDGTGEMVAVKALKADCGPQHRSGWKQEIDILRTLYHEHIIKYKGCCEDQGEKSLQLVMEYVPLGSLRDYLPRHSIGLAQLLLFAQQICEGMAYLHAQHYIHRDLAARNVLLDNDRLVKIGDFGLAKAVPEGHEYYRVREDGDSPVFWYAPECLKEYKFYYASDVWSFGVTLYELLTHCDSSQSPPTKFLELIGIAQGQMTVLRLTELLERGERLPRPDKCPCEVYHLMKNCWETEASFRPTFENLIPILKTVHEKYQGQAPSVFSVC
Kind of assay: Tyk2 Inhibition Assay (Omnia kinase fluorescence peptide substrate assay). To be noted: averaged IC50 ranges; assay of Example A; 10 μM (Km app) or 1 mM ATP, 2 nM Tyk2. In outline: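 2 nM His-tag-cleaved kinase domain (aa 886–1187) with 8 μM Omnia Y12 peptide, 10 μM (Km app) or 1 mM ATP, pH 7.4 HEPES/10 mM MgCl2, 2% DMSO. Fluorescence (ex 360/em 485 nm) every 50 s for 45 min; IC50 from 4-parameter fit of POC, top dose 10 μM.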

For assay [2], the target named is T2, JAK1 (Homo sapiens, UniProt P23458).
T2 construct: purchased Invitrogen Corporation, Carlsbad, Calif; PV4775
The assay is described as follows: JAK1 Inhibition Assay (Omnia kinase fluorescence peptide substrate assay). Particulars: averaged IC50 ranges; assay of Example B; 40 μM (Km app) or 1 mM ATP, 15 nM JAK1.

The target of assay [3] is T3, JAK2 (Homo sapiens, UniProt O60674).
T3 construct: purchased Invitrogen Corporation, Carlsbad, Calif; PV4288
The assay is described as follows: JAK2 Inhibition Assay (Omnia kinase fluorescence peptide substrate assay). Particulars: averaged IC50 ranges; assay of Example C; 25 μM (Km app) or 1 mM ATP, 5 nM JAK2. In outline:
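5 nM JAK2 phosphorylated 10 μM Omnia Y7 peptide with ATP at 25 μM (Km app) or 1 mM, in 25 mM HEPES pH 7.4, 10 mM MgCl2, 0.01% Triton X-100, 1 mM DTT, 2% DMSO. Fluorescence (360/485 nm) was read every 50 s for 45 min. 10-point 3-fold series from 10 μM; POC versus uninhibited and background controls, 4-parameter logistic IC50.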

Assay [4] has as its target T4, JAK3 (Homo sapiens, UniProt P52333).
T4 construct: purchased Invitrogen Corporation, Carlsbad, Calif; PV4080
T4 sequence (P52333 1-1124): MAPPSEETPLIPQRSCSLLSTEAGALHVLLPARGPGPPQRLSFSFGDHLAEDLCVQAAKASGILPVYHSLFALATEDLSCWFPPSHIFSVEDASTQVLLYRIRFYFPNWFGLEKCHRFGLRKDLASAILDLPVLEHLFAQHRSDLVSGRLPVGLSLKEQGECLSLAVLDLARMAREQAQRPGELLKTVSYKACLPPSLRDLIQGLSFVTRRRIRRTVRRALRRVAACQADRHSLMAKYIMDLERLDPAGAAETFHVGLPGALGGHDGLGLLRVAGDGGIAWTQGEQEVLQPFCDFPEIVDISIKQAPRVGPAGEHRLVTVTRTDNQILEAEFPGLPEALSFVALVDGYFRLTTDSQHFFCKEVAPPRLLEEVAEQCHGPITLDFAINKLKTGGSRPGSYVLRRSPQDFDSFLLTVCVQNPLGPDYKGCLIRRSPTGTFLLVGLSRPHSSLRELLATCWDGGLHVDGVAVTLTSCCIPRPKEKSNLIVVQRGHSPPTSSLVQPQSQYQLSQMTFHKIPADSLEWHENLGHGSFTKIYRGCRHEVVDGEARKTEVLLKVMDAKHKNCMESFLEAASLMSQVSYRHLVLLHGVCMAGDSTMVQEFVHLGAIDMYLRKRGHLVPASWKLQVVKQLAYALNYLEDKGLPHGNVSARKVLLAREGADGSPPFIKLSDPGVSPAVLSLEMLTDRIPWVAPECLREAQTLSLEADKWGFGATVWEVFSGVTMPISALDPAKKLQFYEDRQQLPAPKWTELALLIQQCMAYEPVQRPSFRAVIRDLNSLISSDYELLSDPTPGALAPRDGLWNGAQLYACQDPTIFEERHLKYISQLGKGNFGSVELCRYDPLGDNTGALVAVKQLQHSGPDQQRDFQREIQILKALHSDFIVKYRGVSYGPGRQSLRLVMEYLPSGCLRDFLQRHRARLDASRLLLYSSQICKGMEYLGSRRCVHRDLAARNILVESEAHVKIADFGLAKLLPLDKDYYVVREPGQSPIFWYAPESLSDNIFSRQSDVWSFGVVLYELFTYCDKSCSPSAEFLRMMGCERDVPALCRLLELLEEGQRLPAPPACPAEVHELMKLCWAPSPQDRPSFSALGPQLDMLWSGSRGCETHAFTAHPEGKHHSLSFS
The assay is described as follows: JAK3 Inhibition Assay (Omnia kinase fluorescence peptide substrate assay). Particulars: averaged IC50 ranges; assay of Example D; 10 μM (Km app) or 1 mM ATP, 2.5 nM JAK3. In outline: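 Kinase at 2.5 nM with 10 µM Omnia Y7 peptide and 10 µM (Km app) or 1 mM ATP in 25 mM HEPES pH 7.4, 10 mM MgCl2, 1 mM DTT, 0.01% Triton X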

The term IC50 denotes the point on the concentration scale where inhibition reaches its midpoint. Low values mean greater potency in that assay, high ones weaker potency in that assay.

T2 sequence (P23458 whole entry): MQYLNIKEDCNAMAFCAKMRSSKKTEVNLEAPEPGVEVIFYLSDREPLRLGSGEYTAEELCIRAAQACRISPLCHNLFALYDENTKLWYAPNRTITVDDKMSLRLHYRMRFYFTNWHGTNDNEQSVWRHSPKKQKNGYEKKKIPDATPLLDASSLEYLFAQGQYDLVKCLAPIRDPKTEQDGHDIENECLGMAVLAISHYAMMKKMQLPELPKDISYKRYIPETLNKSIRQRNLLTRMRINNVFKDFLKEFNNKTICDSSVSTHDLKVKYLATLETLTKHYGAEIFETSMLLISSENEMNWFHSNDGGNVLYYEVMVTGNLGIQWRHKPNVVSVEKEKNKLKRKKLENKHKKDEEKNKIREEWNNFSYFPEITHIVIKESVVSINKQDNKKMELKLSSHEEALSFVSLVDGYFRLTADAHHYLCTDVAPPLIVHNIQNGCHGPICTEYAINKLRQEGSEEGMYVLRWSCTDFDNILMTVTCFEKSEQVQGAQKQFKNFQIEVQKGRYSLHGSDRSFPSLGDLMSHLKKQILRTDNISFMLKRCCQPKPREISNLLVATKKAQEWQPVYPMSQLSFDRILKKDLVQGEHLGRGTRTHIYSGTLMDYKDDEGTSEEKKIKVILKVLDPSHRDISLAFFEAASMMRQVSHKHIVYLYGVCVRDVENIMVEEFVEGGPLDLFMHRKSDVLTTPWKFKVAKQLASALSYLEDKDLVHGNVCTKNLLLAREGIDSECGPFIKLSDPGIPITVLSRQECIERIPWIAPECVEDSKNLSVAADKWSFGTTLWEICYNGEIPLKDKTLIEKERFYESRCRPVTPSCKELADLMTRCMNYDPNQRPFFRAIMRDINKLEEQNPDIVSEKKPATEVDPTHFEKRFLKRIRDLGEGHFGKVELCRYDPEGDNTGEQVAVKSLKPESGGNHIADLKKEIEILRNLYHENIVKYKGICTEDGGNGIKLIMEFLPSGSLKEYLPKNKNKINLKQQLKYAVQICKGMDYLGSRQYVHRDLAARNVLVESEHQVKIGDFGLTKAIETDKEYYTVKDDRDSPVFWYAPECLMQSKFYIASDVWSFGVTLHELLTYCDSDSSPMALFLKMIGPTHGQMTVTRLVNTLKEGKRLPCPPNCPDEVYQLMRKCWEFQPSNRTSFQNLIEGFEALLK
T3 sequence (O60674 whole entry): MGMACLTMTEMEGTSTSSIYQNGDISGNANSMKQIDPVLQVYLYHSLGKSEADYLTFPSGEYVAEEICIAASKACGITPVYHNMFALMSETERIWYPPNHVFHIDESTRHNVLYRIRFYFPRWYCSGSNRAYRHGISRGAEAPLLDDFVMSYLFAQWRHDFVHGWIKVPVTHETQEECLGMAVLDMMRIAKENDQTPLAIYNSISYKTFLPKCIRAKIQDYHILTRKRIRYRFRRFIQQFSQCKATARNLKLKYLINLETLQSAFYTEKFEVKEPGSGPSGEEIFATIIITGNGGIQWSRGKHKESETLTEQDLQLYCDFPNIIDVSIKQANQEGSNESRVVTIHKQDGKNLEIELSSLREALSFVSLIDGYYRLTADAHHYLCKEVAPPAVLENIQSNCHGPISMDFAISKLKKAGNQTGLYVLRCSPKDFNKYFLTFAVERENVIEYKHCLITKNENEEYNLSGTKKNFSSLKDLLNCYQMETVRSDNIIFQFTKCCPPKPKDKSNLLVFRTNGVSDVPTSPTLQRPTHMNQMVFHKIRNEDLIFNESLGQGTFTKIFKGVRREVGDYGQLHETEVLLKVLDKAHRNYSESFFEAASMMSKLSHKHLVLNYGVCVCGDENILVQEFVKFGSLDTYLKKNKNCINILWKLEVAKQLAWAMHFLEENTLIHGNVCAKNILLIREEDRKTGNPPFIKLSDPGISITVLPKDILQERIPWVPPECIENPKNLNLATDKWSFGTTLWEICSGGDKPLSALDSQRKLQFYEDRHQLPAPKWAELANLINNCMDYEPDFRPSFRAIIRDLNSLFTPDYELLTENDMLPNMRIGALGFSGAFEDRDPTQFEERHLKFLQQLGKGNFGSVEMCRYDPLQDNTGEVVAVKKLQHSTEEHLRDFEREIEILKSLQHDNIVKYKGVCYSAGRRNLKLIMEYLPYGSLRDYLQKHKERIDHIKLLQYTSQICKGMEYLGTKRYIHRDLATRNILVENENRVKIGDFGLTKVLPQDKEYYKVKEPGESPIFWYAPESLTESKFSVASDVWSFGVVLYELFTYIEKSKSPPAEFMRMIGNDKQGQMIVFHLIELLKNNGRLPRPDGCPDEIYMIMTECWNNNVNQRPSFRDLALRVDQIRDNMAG

Take `CC(=O)N1CCC(CC#N)(n2cc(-c3nc(-c4cnn(C)c4)cc4nccn34)cn2)C1` (centres unmarked) [Example 134, 2-(1-acetyl-3-(4-(7-(1-methyl-1H-pyrazol-4-yl)imidazo[1,2-c]pyrimidin-5-yl)-1H-pyrazol-1-yl)pyrrolidin-3-yl)acetonitrile]: the IC50 was 100 to 1000 nM in assay [1], above 1000 nM in assay [2], 100 to 1000 nM in assay [3] and above 1000 nM in assay [4].
For the compound `Cn1cc(-c2cc3nccn3c(-c3cnn(C4(CC#N)CCN(CC(F)(F)F)C4)c3)n2)cn1` (centres unmarked) [Example 135, 2-(3-(4-(7-(1-methyl-1H-pyrazol-4-yl)imidazo[1,2-c]pyrimidin-5-yl)-1H-pyrazol-1-yl)-1-(2,2,2-trifluoroethyl)pyrrolidin-3-yl)acetonitrile], the concentration for half-maximal inhibition (IC50) in assay [1] is 10 to 100 nM; in assay [2] it was 100 to 1000 nM; in assay [3], 10 to 100 nM; in assay [4], 100 to 1000 nM.
Take `Cn1cc(-c2cc3nccn3c(-c3ccn(C4(CC#N)CN(S(=O)(=O)C5CC5)C4)c3)n2)cn1` [Example 136]: the IC50 is below 10 nM in assay [1], 10 to 100 nM in assay [2], 10 to 100 nM in assay [3] and above 1000 nM in assay [4].
On to `CN1CCN(c2ccc(-c3cc4nccn4c(-c4cnn(C5(CC#N)CN(CC(F)(F)F)C5)c4)n3)cc2)CC1` [Example 137, 2-(3-(4-(7-(4-(4-methylpiperazin-1-yl)phenyl)imidazo[1,2-c]pyrimidin-5-yl)-1H-pyrazol-1-yl)-1-(2,2,2-trifluoroethyl)azetidin-3-yl)acetonitrile], for which the IC50 in assay [1] was below 10 nM; in assay [2] it was 10 to 100 nM; in assay [3], 10 to 100 nM; in assay [4] it was 100 to 1000 nM.
Turning to `CN1CCN(c2ccc(-c3cc4nccn4c(-c4cnn(C5(CC#N)CN(S(=O)(=O)C(F)(F)F)C5)c4)n3)cc2)CC1` [Example 138, 2-(3-(4-(7-(4-(4-methylpiperazin-1-yl)phenyl)imidazo[1,2-c]pyrimidin-5-yl)-1H-pyrazol-1-yl)-1-(trifluoromethylsulfonyl)azetidin-3-yl)acetonitrile], the half-inhibitory concentration (IC50) in assay [1] is below 10 nM; in assay [2], 10 to 100 nM; in assay [3] it was 10 to 100 nM; in assay [4], 100 to 1000 nM.
Regarding `Cc1ncc(-c2cc3nccn3c(-c3cnn(C4(CC#N)CN(S(=O)(=O)C(F)(F)F)C4)c3)n2)s1` [Example 139, 2-(3-(4-(7-(2-methylthiazol-5-yl)imidazo[1,2-c]pyrimidin-5-yl)-1H-pyrazol-1-yl)-1-(trifluoromethylsulfonyl)azetidin-3-yl)acetonitrile], the IC50 was below 10 nM in assay [1], 10 to 100 nM in assay [2], 10 to 100 nM in assay [3] and above 1000 nM in assay [4].
Consider `Cc1ncc(-c2cc3nccn3c(-c3cnn(C4(CC#N)CN(S(=O)(=O)C5CC5)C4)c3)n2)s1` [Example 140, 2-(1-(cyclopropylsulfonyl)-3-(4-(7-(2-methylthiazol-5-yl)imidazo[1,2-c]pyrimidin-5-yl)-1H-pyrazol-1-yl)azetidin-3-yl)acetonitrile], for which the IC50 in assay [1] is below 10 nM; in assay [2] it was 10 to 100 nM; in assay [3] it was 10 to 100 nM; in assay [4] it was above 1000 nM.
For `COc1ncc(-c2cc3nccn3c(-c3cnn(C4(CC#N)CN(S(=O)(=O)C5CC5)C4)c3)n2)cn1` [Example 141, 2-(1-(cyclopropylsulfonyl)-3-(4-(7-(2-methoxypyrimidin-5-yl)imidazo[1,2-c]pyrimidin-5-yl)-1H-pyrazol-1-yl)azetidin-3-yl)acetonitrile], the IC50 in assay [1] is 10 to 100 nM; in assay [2], above 1000 nM; in assay [3] it was 100 to 1000 nM; in assay [4], above 1000 nM.
Consider `COc1ncc(-c2cc3nccn3c(-c3cnn(C4(CC#N)CN(S(=O)(=O)C(F)(F)F)C4)c3)n2)cn1` [Example 142, 2-(3-(4-(7-(2-methoxypyrimidin-5-yl)imidazo[1,2-c]pyrimidin-5-yl)-1H-pyrazol-1-yl)-1-(trifluoromethylsulfonyl)azetidin-3-yl)acetonitrile], for which the IC50 is 10 to 100 nM in assay [1], above 1000 nM in assay [2], above 1000 nM in assay [3] and above 1000 nM in assay [4].
Take `CS(=O)(=O)CCn1cc(-c2cc3nccn3c(-c3ccn(C4(CC#N)CN(CC(F)(F)F)C4)n3)n2)cn1` [Example 143, 2-(3-(3-(7-(1-(2-(methylsulfonyl)ethyl)-1H-pyrazol-4-yl)imidazo[1,2-c]pyrimidin-5-yl)-1H-pyrazol-1-yl)-1-(2,2,2-trifluoroethyl)azetidin-3-yl)acetonitrile]: the IC50 in assay [1] is below 10 nM; in assay [2], 100 to 1000 nM; in assay [3], 10 to 100 nM; in assay [4], above 1000 nM.
Taken in the same sequence, the figures for `Cn1ccc(-c2cc3nccn3c(-c3ccn(C4(CC#N)CN(CC(F)(F)F)C4)n3)n2)cc1=O` [Example 144, 2-(3-(3-(7-(1-methyl-2-oxo-1,2-dihydropyridin-4-yl)imidazo[1,2-c]pyrimidin-5-yl)-1H-pyrazol-1-yl)-1-(2,2,2-trifluoroethyl)azetidin-3-yl)acetonitrile] were 10 to 100 nM, above 1000 nM, 100 to 1000 nM and above 1000 nM.
In the case of `Cn1cc(-c2cc3nccn3c(-c3ccn(C4(CC#N)CN(CC(F)(F)F)C4)n3)n2)ccc1=O` [Example 145, 2-(3-(3-(7-(1-methyl-6-oxo-1,6-dihydropyridin-3-yl)imidazo[1,2-c]pyrimidin-5-yl)-1H-pyrazol-1-yl)-1-(2,2,2-trifluoroethyl)azetidin-3-yl)acetonitrile], the concentration for half-maximal inhibition (IC50) in assay [1] is below 10 nM; in assay [2], 100 to 1000 nM; in assay [3], 10 to 100 nM; in assay [4], above 1000 nM.
On the same counts, the results for `N#CCC1(n2cc(-c3nc(-c4ccc(C(F)(F)F)cc4)cc4nccn34)cn2)CN(S(=O)(=O)C(F)(F)F)C1` [Example 146, 2-(3-(4-(7-(4-(trifluoromethyl)phenyl)imidazo[1,2-c]pyrimidin-5-yl)-1H-pyrazol-1-yl)-1-(trifluoromethylsulfonyl)azetidin-3-yl)acetonitrile] are below 10 nM, 10 to 100 nM, 100 to 1000 nM and above 1000 nM.
Taken in the same sequence, the figures for `Cn1cc(-c2cc3nccn3c(-c3cnn(C4(CC#N)CC5(COC5)C4)c3)n2)cn1` [Example 148, 2-(6-(4-(7-(1-methyl-1H-pyrazol-4-yl)imidazo[1,2-c]pyrimidin-5-yl)-1H-pyrazol-1-yl)-2-oxaspiro[3.3]heptan-6-yl)acetonitrile] were below 10 nM, 100 to 1000 nM, 10 to 100 nM and above 1000 nM.
